Assay results taken from article PMC9578396, “Intrinsic Antibacterial Activity of Xeruborbactam In Vitro: Assessing Spectrum and Mode of Action” (Antimicrobial Agents and Chemotherapy, 2022).
Converted amounts (≈) assume the structure as drawn. Read-outs that look alike come from different tables or passages of the source.

Columns and labels:
Type in all cases: cell-based
Klebsiella pneumoniae = assay: microbe, parasite or virus in culture; conditions: Klebsiella pneumoniae
Source text: (§1) (i) Panels of engineered bacterial strains containing various combinations of porin and efflux mutations were used. The construction of all the strains used in the study is described in detail in references, [44], and [45]. (ii) KPC-producing clinical isolates and their derivatives that lost KPC plasmids were used also. These strains and their origins are described in the Table S2. (iii) Finally, KPC-producing clinical isolates enriched in strains with porin mutations were used. The mutations identified include various deletions, insertions, nonsense mutations, and decreased expression. Most of the isolates were obtained from JMI Laboratories or International Health Management Associates (IHMA); they were collected in the course of global surveillance studies.
(§2) Bacterial isolates were subjected to broth microdilution susceptibility testing, performed according to Clinical and Laboratory Standards Institute (CLSI) methods ([46]), using panels prepared in-house. […] Xeruborbactam was synthesized at Qpex Biopharma, San Diego, CA. Avibactam was purchased from eNovation Chemicals LLC, Bridgewater, NJ, USA; zidebactam was from MedKoo Biosciences, Inc., Morrisville, NC, and nacubactam was from Advanced ChemBlocks, Hayward, CA. Durlobactam was synthesized at Acme Bioscience, Palo Alto, CA, USA.

Enterobacterales = assay: Broth microdilution MIC (CLSI), Enterobacterales; conditions: read-out: antibacterial potency (MIC)
Source text: Bacterial isolates were subjected to broth microdilution susceptibility testing, performed according to Clinical and Laboratory Standards Institute (CLSI) methods ([46]), using panels prepared in-house. Meropenem was purchased from Sandoz, and all other antibiotics were from Sigma-Aldrich. Xeruborbactam was synthesized at Qpex Biopharma, San Diego, CA. Avibactam was purchased from eNovation Chemicals LLC, Bridgewater, NJ, USA; zidebactam was from MedKoo Biosciences, Inc., Morrisville, NC, and nacubactam was from Advanced ChemBlocks, Hayward, CA. Durlobactam was synthesized at Acme Bioscience, Palo Alto, CA, USA.

Pseudomonas aeruginosa = assay: Broth microdilution MIC (CLSI), Pseudomonas aeruginosa; conditions: Pseudomonas aeruginosa
Source text: as §1, §2

Acinetobacter baumannii = assay: Broth microdilution MIC (CLSI), Acinetobacter baumannii; conditions: Acinetobacter baumannii
Source text: as §1, §2

Escherichia coli = assay: Broth microdilution MIC (CLSI), Escherichia coli
Source text: as §1, §2

[1] = KPM1026a, parent, read-out: MIC
[2] = strain KPM1026a, wild type, read-out: MIC
[3] = strain KPM1027, ramR, read-out: MIC
[4] = strain KPM1171, ramR ompK36_1171, read-out: MIC
[5] = strain KPM2040, ompK36_2040, read-out: MIC
[6] = strain KPM2613, ΔompK35 ompK36_2040
[7] = strain PAM1020, wild type, read-out: MIC
[8] = strain PAM1032, nalB (MexAB-OprM overexpression)
[9] = strain PAM1033, nfxB (MexCD-OprJ overexpression)
[10] = strain PAM1034, nfxC (MexEF-OprN overexpression)
[11] = strain AB1007, wild type, read-out: MIC
[12] = strain ACM1015, ΔadeIJK ΔadeABC
[13] = strain ACM1027, adeN (AdeIJK overexpression)
[14] = strain ACM1030, adeS (AdeABC overexpression)
[15] = EC1078, PBP2 same as MG1655, PBP3 I332V
[16] = EC1081, PBP2 same as MG1655, PBP3 Q227H
[17] = EC1085, PBP2 T331P, PBP3 A233T I332V
[18] = EC1088, PBP2 A308G, PBP3 same as MG1655
[19] = EC1098, PBP2 V217M, PBP3 YRIN ins, I532L
[20] = EC1103, PBP2 same as MG1655, PBP3 YRIN ins, Q227H, E349K, I532L
[21] = EC1105, PBP2 A543T, PBP3 YRIN ins, Q227H, E349K, I532L
[22] = EC1119, PBP2 same as MG1655, PBP3 YRIN ins, Q227H, E349K, I532L
[23] = EC1121, PBP2 V217M, PBP3 YRIN ins, E349K, I532L
[24] = Escherichia coli, strain ECM5497, wild type, read-out: MIC
[25] = Escherichia coli, strain ECM6001, ΔacrB
[26] = Escherichia coli, strain ECM6502, marR (AcrAB overexpression)

SMILES: CC1=C[C@@H]2CN(C(=O)N2OS(=O)(=O)O)[C@@H]1C(N)=O [Durlobactam]
- MIC (Klebsiella pneumoniae; KPM1026a, alone, read-out: MIC): 0.25 µg/mL
- MIC (Klebsiella pneumoniae; [1]): 0.25 µg/mL
- MIC (Klebsiella pneumoniae; KPM3532 (TolQ::M189K), alone): 8 µg/mL
- MIC (Klebsiella pneumoniae; KPM3532, TolQ::M189K): 8 µg/mL
- MIC (Klebsiella pneumoniae; KPM3534 (TolQ::S31F), alone): 16 µg/mL
- MIC (Klebsiella pneumoniae; KPM3534, TolQ::S31F): 16 µg/mL
- MIC (Klebsiella pneumoniae; KPM4235, TolQ::IP(183–1844)PR): 16 µg/mL
- MIC (Klebsiella pneumoniae; KPM4236, TolQ::TAA at aa 103): 16 µg/mL
- MIC (Klebsiella pneumoniae; KPM4238, TolQ::S25F): 16 µg/mL
- MIC (Klebsiella pneumoniae; KPM4239, TolQ::S28F): 16 µg/mL
- MIC (Klebsiella pneumoniae; KPM4240, TolQ::S25Y): 16 µg/mL
- MIC (Klebsiella pneumoniae; [2]): 0.5 µg/mL
- MIC (Klebsiella pneumoniae; [3]): 0.5 µg/mL
- MIC (Klebsiella pneumoniae; [4]): 32 µg/mL
- MIC (Klebsiella pneumoniae; [5]): 4 µg/mL
- MIC (Klebsiella pneumoniae; strain KPM2600, ΔompK35): 0.5 µg/mL
- MIC (Klebsiella pneumoniae; [6]): 8 µg/mL
- MIC (Klebsiella pneumoniae; strain KPM2696, ΔacrB): 0.25 µg/mL
- MIC (Enterobacterales): 0.125 to 0.5 µg/mL (≈ 0.451 to 1.8 µM)
- MIC (Pseudomonas aeruginosa; after inactivation of MexAB-OprM, read-out: MIC): 8 µg/mL
- MIC (Pseudomonas aeruginosa; before inactivation of MexAB-OprM (wild type), read-out: MIC): 64 µg/mL
- MIC (Pseudomonas aeruginosa; [7]): 64 µg/mL
- MIC (Pseudomonas aeruginosa; [8]): > 256 µg/mL
- MIC (Pseudomonas aeruginosa; [9]): 4 µg/mL
- MIC (Pseudomonas aeruginosa; [10]): 128 µg/mL
- MIC (Pseudomonas aeruginosa; strain PAM1106, mexA::Tet): 8 µg/mL
- MIC (Pseudomonas aeruginosa; strain PAM1154, oprM::Hg): 8 µg/mL
- MIC (Acinetobacter baumannii; [11]): 64 µg/mL
- MIC (Acinetobacter baumannii; strain ACM1013, ΔadeIJK): 32 µg/mL
- MIC (Acinetobacter baumannii; strain ACM1014, ΔadeABC): 64 µg/mL
- MIC (Acinetobacter baumannii; [12]): 16 µg/mL
- MIC (Acinetobacter baumannii; [13]): 128 µg/mL
- MIC (Acinetobacter baumannii; [14]): 64 µg/mL
- MIC (Escherichia coli; [15]): 8
- MIC (Escherichia coli; [16]): 0.25
- MIC (Escherichia coli; [17]): 32
- MIC (Escherichia coli; [18]): 0.5
- MIC (Escherichia coli; EC1097, PBP2 M574I, PBP3 Q227H): 1
- MIC (Escherichia coli; [19]): 0.5
- MIC (Escherichia coli; [20]): 0.25
- MIC (Escherichia coli; [21]): 1
- MIC (Escherichia coli; [22]): 8
- MIC (Escherichia coli; [23]): 0.5
- MIC (Escherichia coli; [24]): 0.5 µg/mL
- MIC (Escherichia coli; [25]): 0.5 µg/mL
- MIC (Escherichia coli; [26]): 0.25 µg/mL

SMILES: O=C(NNC(=O)[C@@H]1CC[C@@H]2CN1C(=O)N2OS(=O)(=O)O)[C@@H]1CCCNC1 [Zidebactam]
- MIC (Klebsiella pneumoniae; KPM1026a, alone, read-out: MIC): 0.25 µg/mL
- MIC (Klebsiella pneumoniae; [1]): 0.25 µg/mL
- MIC (Klebsiella pneumoniae; KPM3532 (TolQ::M189K), alone): > 64 µg/mL
- MIC (Klebsiella pneumoniae; KPM3532, TolQ::M189K): > 64 µg/mL
- MIC (Klebsiella pneumoniae; KPM3534 (TolQ::S31F), alone): > 64 µg/mL
- MIC (Klebsiella pneumoniae; KPM3534, TolQ::S31F): > 64 µg/mL
- MIC (Klebsiella pneumoniae; KPM4235, TolQ::IP(183–1844)PR): > 64 µg/mL
- MIC (Klebsiella pneumoniae; KPM4236, TolQ::TAA at aa 103): > 64 µg/mL
- MIC (Klebsiella pneumoniae; KPM4238, TolQ::S25F): > 64 µg/mL
- MIC (Klebsiella pneumoniae; KPM4239, TolQ::S28F): > 64 µg/mL
- MIC (Klebsiella pneumoniae; KPM4240, TolQ::S25Y): > 64 µg/mL
- MIC (Klebsiella pneumoniae; [2]): 0.25 µg/mL
- MIC (Klebsiella pneumoniae; [3]): 0.25 µg/mL
- MIC (Klebsiella pneumoniae; [4]): > 64 µg/mL
- MIC (Klebsiella pneumoniae; [5]): > 64 µg/mL
- MIC (Klebsiella pneumoniae; strain KPM2600, ΔompK35): 0.25 µg/mL
- MIC (Klebsiella pneumoniae; [6]): > 64 µg/mL
- MIC (Klebsiella pneumoniae; strain KPM2696, ΔacrB): 0.25 µg/mL
- MIC (Enterobacterales): 0.125 to 0.5 µg/mL (≈ 0.319 to 1.28 µM)
- MIC (Pseudomonas aeruginosa; [7]): 2 µg/mL
- MIC (Pseudomonas aeruginosa; [8]): 4 µg/mL
- MIC (Pseudomonas aeruginosa; [9]): 0.125 µg/mL
- MIC (Pseudomonas aeruginosa; [10]): 2 µg/mL
- MIC (Pseudomonas aeruginosa; strain PAM1106, mexA::Tet): 2 µg/mL
- MIC (Pseudomonas aeruginosa; strain PAM1154, oprM::Hg): 2 µg/mL
- MIC (Acinetobacter baumannii; [11]): > 256 µg/mL
- MIC (Acinetobacter baumannii; strain ACM1013, ΔadeIJK): > 256 µg/mL
- MIC (Acinetobacter baumannii; strain ACM1014, ΔadeABC): > 256 µg/mL
- MIC (Acinetobacter baumannii; [12]): > 256 µg/mL
- MIC (Acinetobacter baumannii; [13]): > 256 µg/mL
- MIC (Acinetobacter baumannii; [14]): > 256 µg/mL
- MIC (Escherichia coli; [15]): 8
- MIC (Escherichia coli; [16]): 0.125
- MIC (Escherichia coli; [17]): 16
- MIC (Escherichia coli; [18]): 0.25
- MIC (Escherichia coli; EC1097, PBP2 M574I, PBP3 Q227H): 0.25
- MIC (Escherichia coli; [19]): 0.25
- MIC (Escherichia coli; [20]): 0.25
- MIC (Escherichia coli; [21]): 0.5
- MIC (Escherichia coli; [22]): 8
- MIC (Escherichia coli; [23]): 0.5
- MIC (Escherichia coli; [24]): 0.125 µg/mL
- MIC (Escherichia coli; [25]): 0.125 µg/mL
- MIC (Escherichia coli; [26]): 0.5 µg/mL
- fold effect on MIC (Escherichia coli; overexpression of AcrAB in E. coli): 4 fold
